Data as given in US7220875B2, “Amino acid derived prodrugs of propofol, compositions and uses thereof” (priority 2003, dated 2007).

Assays:
[1] = Caco-2 homogenate S9 stability; type: in vitro ADME; conditions: Caco-2 S9 (0.5 mg protein per mL), prodrug 5 μM, 37° C.
Procedure: (§1) The stability of propofol prodrugs were evaluated in one or more in vitro systems using a variety of tissue preparations following methods known in the art. Tissues were obtained from commercial sources (e.g., Pel-Freez Biologicals, Rogers, Ark., or GenTest Corporation, Woburn, Mass.). Experimental conditions used for the in vitro studies are described in Table 1 below. Each preparation was incubated with test compound at 37° C. for one hour. Aliquots (50 μL) were removed at 0, 30, and 60 min and quenched with 0.1% trifluoroacetic acid in acetonitrile. Samples were then centrifuged and analyzed by LC/MS/MS (see Examples 59 and 60 below for method details). Stability of drug conjugates towards specific enzymes (e.g., peptidases, etc.) were also assessed in vitro by incubation with the purified enzyme:
Caco-2 Homogenate S9 Stability: Caco-2 cells were grown for 21 days prior to harvesting. Culture medium was removed and cell monolayers were rinsed and scraped off into ice-cold 10 mM sodium phosphate/0.15 M potassium chloride, pH 7.4. Cells were lysed by sonication at 4° C. using a probe sonicator. Lysed cells were then transferred into 1.5 mL centrifuge vials and centrifuged at 9000 g for 20 min at 4° C. The resulting supernatant (Caco-2 cell homogenate S9 fraction) was aliquoted into 0.5 mL vials and stored at −80° C. until used.
For stability studies, prodrug (5 μM) was incubated in Caco-2 homogenate S9 fraction (0.5 mg protein per mL) for 60 min at 37° C. Concentrations of intact prodrug and released propofol were determined at zero time and 60 minutes using LC/MS/MS.

[2] = Enzymatic cleavage of prodrugs in vitro, human liver S9; type: in vitro ADME; conditions: Human Liver S9 (0.5 mg/mL), substrate 2.0 μM, NADPH, 37° C.
Procedure: as §1, with “enzyme: […]” for “enzyme:”

[3] = Enzymatic cleavage of prodrugs in vitro, human plasma; type: in vitro ADME; conditions: substrate 2.0 μM, 37° C.
Procedure: as §1, with “enzyme: […]” for “enzyme:”

[4] = Enzymatic cleavage of prodrugs in vitro, rat liver S9; type: in vitro ADME; conditions: Rat Liver S9 (0.5 mg/mL), substrate 2.0 μM, NADPH, 37° C.
Procedure: as §1, with “enzyme: […]” for “enzyme:”

[5] = Enzymatic cleavage of prodrugs in vitro, rat plasma; type: in vitro ADME; conditions: substrate 2.0 μM, 37° C.
Procedure: as §1, with “enzyme: […]” for “enzyme:”

pancreatin = test: Pancreatin stability; type: in vitro ADME, porcine; conditions: 1% (w/v) pancreatin, pH 7.5, conjugate 5 μM, 37° C.
Procedure: as §1
Pancreatin Stability: Stability studies were conducted by incubating conjugate (5 μM) with 1% (w/v) pancreatin (Sigma, P-1625, from porcine pancreas) in 0.025 M Tris buffer containing 0.5 M NaCl (pH 7.5) at 37° C. for 60 min. The reaction was stopped by addition of 2 volumes of methanol. After centrifugation at 14,000 rpm for 10 min, the supernatant was removed and analyzed by LC/MS/MS.

in vivo = conditions: male, Sprague-Dawley, rat, plasma, oral, 25 mg per kg body weight
[6] = rats; oral dosing; cited from earlier work

In the case of `CC(C)c1cccc(C(C)C)c1OC(=O)OC[C@H](NC(=O)[C@H](C)N)C(=O)O` [Compound 161, H-Ala-Ser(β-OC(O)OPropofol)-OH], the “% of Propofol Released from Propofol Prodrugs after 60 min.” value (“% of Propofol Released” for short) [1] is reported as 20%, the “% of Propofol Released” value [2] is reported as 14% and the “% of Propofol Released” value [3] is reported as 2%. The “% of Propofol Released” value [4] was 8%, the “% of Propofol Released” value [5] was 30% and the “% of Propofol Released” value (pancreatin) was 8%.

In the case of “H-Asp-Asp(OCH2OPropofol)-OH [Compound 220]”, the “% of Propofol Released” value [1] is reported as 49%, the “% of Propofol Released” value [2] is reported as 0% and the “% of Propofol Released” value [3] is reported as 1%. The “% of Propofol Released” value (pancreatin) was 6%.

In the case of H-Gly-Tyr-OPropofol [Compound 192], the “% of Propofol Released” value [1] is reported as 41%, the “% of Propofol Released” value [2] is reported as 60% and the “% of Propofol Released” value [3] is reported as 15%. The “% of Propofol Released” value [4] was 60%, the “% of Propofol Released” value [5] was 15% and the “% of Propofol Released” value (pancreatin) was 0%.

With `CC(C)c1cccc(C(C)C)c1OC(=O)CC[C@H](NC(=O)[C@@H](N)CC(N)=O)C(=O)O` [Compound 124, H-Asn-Glu(OPropofol)-OH] the “% of Propofol Released” value [1] was 0%, the “% of Propofol Released” value [2] was 0% and the “% of Propofol Released” value [3] was 2%. For the same compound, the “% of Propofol Released” value [4] was 0%, the “% of Propofol Released” value [5] was 65% and the “% of Propofol Released” value (pancreatin) was 4%.

For `CC(C)c1cccc(C(C)C)c1OC(=O)C[C@H](NC(=O)[C@@H](N)Cc1ccc(O)cc1)C(=O)O` [Compound 122, H-Tyr-Asp(OPropofol)-OH], the “% of Propofol Released” value [1] was 0%, the “% of Propofol Released” value [2] was 6% and the “% of Propofol Released” value [3] was 0%. The “% of Propofol Released” value [4] was 9%, the “% of Propofol Released” value [5] was 2% and the “% of Propofol Released” value (pancreatin) was 10%.

With `CC(C)c1cccc(C(C)C)c1OC(=O)C[C@H](NC(=O)[C@H](C)N)C(=O)O` [Compound 107, H-Ala-Asp(OPropofol)-OH] the “% of Propofol Released” value [1] was 4%, the “% of Propofol Released” value [2] was 5% and the “% of Propofol Released” value [3] was 1%. For the same compound, the “% of Propofol Released” value [4] was 6%, the “% of Propofol Released” value [5] was 3% and the “% of Propofol Released” value (pancreatin) was 7%.

In the case of `CC(C)c1cccc(C(C)C)c1OC(=O)CC[C@H](N)C(=O)N[C@@H](C)C(=O)O` [Compound 138, H-Glu(OPropofol)-Ala-OH], the “% of Propofol Released” value [1] is reported as 3%, the “% of Propofol Released” value [2] is reported as 0% and the “% of Propofol Released” value [3] is reported as 44%. The “% of Propofol Released” value [4] was 0%, the “% of Propofol Released” value [5] was 50% and the “% of Propofol Released” value (pancreatin) was 9%.

For `CC(C)c1cccc(C(C)C)c1O` [Propofol, 2,6-diisopropylphenol], the bioavailability (in vivo) is given as 0.23% and the “administered drug undergoing first pass metabolism” value [6] is given as “approximately 90%”.

For `CSCC[C@H](N)C(=O)N[C@@H](CC(=O)Oc1c(C(C)C)cccc1C(C)C)C(=O)O` [Compound 121, H-Met-Asp(OPropofol)-OH], the “% of Propofol Released” value [1] was 0%, the “% of Propofol Released” value [2] was 0% and the “% of Propofol Released” value [3] was 3%. For the same compound, the “% of Propofol Released” value [4] was 0%, the “% of Propofol Released” value [5] was 7% and the “% of Propofol Released” value (pancreatin) was 0%.
